From US20240300991A1, “NUCLEOSIDE DERIVATIVE HAVING MULTI-TARGET KINASE INHIBITORY ACTIVITY AND PHARMACEUTICAL COMPOSITION FOR PREVENTING AND TREATING CANCER COMPRISING SAME” (FUTURE MEDICINE CO., LTD., priority 2021, published 2024)

Tests used:
CSNK1D = target: T1, CSNK1D (Homo sapiens, UniProt P48730); assay: Kinase inhibition test (DNA-tagged kinase, affinity resin, qPCR readout); assay type: binding; set-up: key: (−) indicates no effect; (+) indicates weak inhibitory activity; (++) indicates a moderate level of inhibitory activity; (+++) indicates strong inhibitory activity; details: 1 μM of compound
T1 construct: made in house
T1 sequence (P48730 whole entry): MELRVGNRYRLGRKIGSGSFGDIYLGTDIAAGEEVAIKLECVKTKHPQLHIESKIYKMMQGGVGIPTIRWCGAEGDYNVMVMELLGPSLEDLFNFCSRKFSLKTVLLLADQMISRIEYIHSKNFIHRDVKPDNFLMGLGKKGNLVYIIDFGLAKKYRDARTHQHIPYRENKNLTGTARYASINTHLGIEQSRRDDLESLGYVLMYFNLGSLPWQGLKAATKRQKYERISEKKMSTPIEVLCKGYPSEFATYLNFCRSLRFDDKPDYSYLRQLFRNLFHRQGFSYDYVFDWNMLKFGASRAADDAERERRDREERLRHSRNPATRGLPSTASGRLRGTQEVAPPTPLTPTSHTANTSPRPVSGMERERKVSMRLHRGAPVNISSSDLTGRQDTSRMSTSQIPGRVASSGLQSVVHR
Text: (§1) In order to examine the inhibitory activity of the nucleoside derivatives of the present invention synthesized in the Preparation Examples against kinases, the nucleoside derivatives were confirmed to have inhibitory activity against neurotrophic tyrosine kinase receptor type 1 or tropomyosin receptor kinase A (NTRK1), casein kinase 1 isoform delta (CSNK1D), dual specificity tyrosine-phosphorylation-regulated kinase 1A (DYRK1A), dual specificity tyrosine-phosphorylation-regulated kinase 1B (DYRK1B) and receptor-type tyrosine-protein kinase or fms like tyrosine kinase 3 or cluster of differentiation antigen 135 (CD135) or fetal liver kinase-2 (Flk2) (FLT3).
(§2) The inhibition measurement method is as follows. Most of the kinases were produced by culturing a phage in which BL21 E. coli was tagged with a kinase at 32° C. until lysis, followed by centrifugation and filtration. Further, the kinases were produced using HEK-293 cells. Thereafter, the kinases were DNA tagged for qPCR. After an affinity resin was prepared by stirring a biotin-tagged substrate onto streptavidin-coated beads for 30 minutes, a non-specifically bound substrate was washed with a buffer (SeaBlock (Pierce), 1% BSA, 0.05% Tween 20, 1 mM DTT).
(§3) For a kinase test, the kinase, the substrate, the affinity resin, and a test material dissolved in dimethyl sulfoxide were stirred together in a buffer (20% SeaBlock, 0.17×PBS, 0.05% Tween20, and 6 mM DTT) at room temperature for 1 hour. Thereafter, an affinity substrate was washed with a buffer (1×PBS, 0.05% Tween20), and then suspended in an elution buffer (1×PBS, 0.05% Tween20, 0.5 μM non-biotinylated affinity ligand), and the resulting suspension was stirred. The concentration of the kinase was quantified by qPCR.

DYRK1A = target: T2, DYRK1A (Homo sapiens, UniProt Q13627); assay: as above; assay type: binding; set-up: key: (−) indicates no effect; (+) indicates weak inhibitory activity; (++) indicates a moderate level of inhibitory activity; (+++) indicates strong inhibitory activity; details: 1 μM of compound
T2 construct: made in house
Text: as §1, §2, §3

DYRK1B = target: T3, DYRK1B (Homo sapiens, UniProt Q9Y463); assay: as above; assay type: binding; set-up: key: (−) indicates no effect; (+) indicates weak inhibitory activity; (++) indicates a moderate level of inhibitory activity; (+++) indicates strong inhibitory activity; details: 1 μM of compound
T3 construct: made in house
T3 sequence (Q9Y463 whole entry): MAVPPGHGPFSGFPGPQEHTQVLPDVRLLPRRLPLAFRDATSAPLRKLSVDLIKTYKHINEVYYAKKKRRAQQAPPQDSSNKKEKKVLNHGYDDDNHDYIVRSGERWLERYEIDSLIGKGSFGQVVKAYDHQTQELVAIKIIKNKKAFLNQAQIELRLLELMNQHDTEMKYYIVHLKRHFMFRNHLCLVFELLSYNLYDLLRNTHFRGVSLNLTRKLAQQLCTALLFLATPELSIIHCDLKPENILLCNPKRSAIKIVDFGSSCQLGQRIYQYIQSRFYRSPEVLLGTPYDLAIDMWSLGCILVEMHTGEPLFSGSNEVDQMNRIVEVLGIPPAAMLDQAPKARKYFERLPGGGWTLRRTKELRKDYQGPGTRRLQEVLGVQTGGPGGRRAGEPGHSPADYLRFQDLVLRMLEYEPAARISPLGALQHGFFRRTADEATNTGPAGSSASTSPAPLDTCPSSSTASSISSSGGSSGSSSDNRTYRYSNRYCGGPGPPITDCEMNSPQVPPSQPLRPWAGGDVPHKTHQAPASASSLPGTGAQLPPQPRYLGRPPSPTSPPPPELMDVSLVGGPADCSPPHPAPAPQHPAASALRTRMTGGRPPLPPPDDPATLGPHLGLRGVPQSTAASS
Text: as §1, §2, §3

NTRK1 = target: T4, NTRK1 (Homo sapiens, UniProt P04629); assay: as above; assay type: binding; set-up: key: (−) indicates no effect; (+) indicates weak inhibitory activity; (++) indicates a moderate level of inhibitory activity; (+++) indicates strong inhibitory activity; details: 1 μM of compound
T4 construct: made in house
T4 sequence (P04629 33-796): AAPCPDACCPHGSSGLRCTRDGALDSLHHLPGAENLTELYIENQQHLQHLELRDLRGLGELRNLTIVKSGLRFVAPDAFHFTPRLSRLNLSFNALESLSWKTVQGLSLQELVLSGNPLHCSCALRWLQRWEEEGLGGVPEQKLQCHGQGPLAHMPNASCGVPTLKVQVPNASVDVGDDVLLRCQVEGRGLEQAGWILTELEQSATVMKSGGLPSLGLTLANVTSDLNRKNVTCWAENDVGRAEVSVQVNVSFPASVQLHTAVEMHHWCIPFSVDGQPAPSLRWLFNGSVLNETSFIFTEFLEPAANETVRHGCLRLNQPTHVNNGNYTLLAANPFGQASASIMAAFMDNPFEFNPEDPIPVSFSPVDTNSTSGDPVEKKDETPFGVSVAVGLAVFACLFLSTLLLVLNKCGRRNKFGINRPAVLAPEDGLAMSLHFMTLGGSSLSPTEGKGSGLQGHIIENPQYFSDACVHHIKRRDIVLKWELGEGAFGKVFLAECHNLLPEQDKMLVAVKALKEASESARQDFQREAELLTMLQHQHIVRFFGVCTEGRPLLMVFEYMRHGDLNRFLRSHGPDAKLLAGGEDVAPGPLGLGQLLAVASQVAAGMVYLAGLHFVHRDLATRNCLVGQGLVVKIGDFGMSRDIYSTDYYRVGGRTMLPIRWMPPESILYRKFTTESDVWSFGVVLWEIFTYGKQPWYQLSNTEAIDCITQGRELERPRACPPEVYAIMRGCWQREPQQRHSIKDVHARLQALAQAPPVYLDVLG
Text: as §1, §2, §3

[1] = system: PC-3 (prostate cancer cells); assay: Inhibitory activity against cancer cells (sulforhodamine B staining); assay type: cell-based; details: 3 days, SRB staining
Experimental: (§4) In order to examine the anticancer activity of the nucleoside derivatives of the present invention synthesized in the Preparation Examples, the ICso of each of A549 (lung cancer cells), HCT116 (colon cancer cells), MDA-MB-231 (breast cancer cells), SK-Hep-1 (liver cancer cells), SNU638 (stomach cancer cells) and PC-3 (prostate cancer cells) against cancer cells was measured.
(§5) The test method is as follows. Cells were allowed to stand for 1 day and set as a control on day 0. Further, after a test material was added to the cells, the cells were allowed to stand for 3 days. Thereafter, the cells were stained with 1% acetic acid and 0.4% sulforhodamine B. The stained cells were dried and dissolved in 10 mM Tris (pH 10.0). Absorbance was measured at 515 nm, and the degree of cell division was determined using the following equation. After calculation as Cell division (%)=(average absorbancetest material−average absorbanceday 0)/(average absorbance control-average absorbanceday 0)×100, the degree of cell division was calculated through a non-linear regression analysis using Table Curve 2D v5.01 (Systat Software Inc., San Jose, CA, USA).

A549 (lung cancer cells) = assay: as above; assay type: cell-based; details: 3 days, SRB staining
Experimental: as §4, §5

[2] = system: SNU638 (stomach cancer cells); assay: as above; assay type: cell-based; details: 3 days, SRB staining
Experimental: as §4, §5

[3] = system: HCT116 (colon cancer cells); assay: as above; assay type: cell-based; details: 3 days, SRB staining
Experimental: as §4, §5

[4] = system: MDA-MB-231 (breast cancer cells); assay: as above; assay type: cell-based; details: 3 days, SRB staining
Experimental: as §4, §5

[5] = system: SK-Hep-1 (liver cancer cells); assay: as above; assay type: cell-based; details: 3 days, SRB staining
Experimental: as §4, §5

SMILES | CSNK1D inhibitory activity (CSNK1D) | DYRK1A inhibitory activity (DYRK1A) | DYRK1B inhibitory activity (DYRK1B) | NTRK1 inhibitory activity (NTRK1) | IC50 ([1]; 72 h) [nM] | IC50 (A549 (lung cancer cells)) [nM] | IC50 [2] [nM] | IC50 [3] [nM] | IC50 [4] [nM] | IC50 [5] [nM] | IC50 [1] [nM] | IC50 (A549 (lung cancer cells); Homo sapiens, 72 h) [nM] | IC50 ([2]; Homo sapiens, SNU-638, 72 h) [nM] | IC50 ([3]; Homo sapiens, HCT-116, 72 h) [nM] | IC50 ([4]; Homo sapiens, 72 h) [nM] | IC50 ([5]; Homo sapiens, SK-HEP1, 72 h) [nM]
Nc1ncnc2c1c(-c1ccco1)cn2[C@@H]1S[C@H](CO)[C@@H](O)[C@H]1O [Compound 1a, (2R,3R,4S,5R)-2-(4-amino-5-(furan-2-yl)-7H-pyrrolo[2,3-d]pyrimidin-7-yl)-5-(hydroxymethyl)tetrahydrothiophene-3,4-diol] | ++ | +++ | +++ | +++ | 2460 |  |  |  |  |  |  |  |  |  |  | 
Nc1ncnc2c1c(-c1cccs1)cn2[C@@H]1S[C@H](CO)[C@@H](O)[C@H]1O [Compound 1b, (2R,3R,4S,5R)-2-(4-amino-5-(thiophen-2-yl)-7H-pyrrolo[2,3-d]pyrimidin-7-yl)-5-(hydroxymethyl)tetrahydrothiophene-3,4-diol] | +++ | ++ | ++ | +++ | 2480 |  |  |  |  |  |  |  |  |  |  | 
Nc1ncnc2c1c(-c1ccccc1)cn2[C@@H]1S[C@H](CO)[C@@H](O)[C@H]1O [Compound 2b] | +++ | ++ | ++ | ++ |  | 7570 | 6320 | 6350 | 8830 | 7810 | 9210 |  |  |  |  | 
C#Cc1cn([C@@H]2S[C@H](CO)[C@@H](O)[C@H]2O)c2ncnc(N)c12 [Compound 3, (2R,3R,4S,5R)-2-(4-amino-5-ethynyl-7H-pyrrolo[2,3-d]pyrimidin-7-yl)-5-(hydroxymethyl)tetrahydrothiophene-3,4-diol] | ++ | +++ | +++ | ++ | 4 |  |  |  |  |  |  | 60 | 30 | 30 | 50 | 50
CCC#Cc1cn([C@@H]2S[C@H](CO)[C@@H](O)[C@H]2O)c2ncnc(N)c12 [Compound 4b] | + | + | + | + |  | > 50000 | > 50000 | > 50000 | > 50000 | > 50000 | > 50000 |  |  |  |  | 
CC(C)(C)C#Cc1cn([C@@H]2S[C@H](CO)[C@@H](O)[C@H]2O)c2ncnc(N)c12 [Compound 4c] | + | − | − | + |  | > 50000 | > 50000 | > 50000 | 29600 | > 50000 | > 50000 |  |  |  |  | 
Nc1ncnc2c1c(C#CC1CC1)cn2[C@@H]1S[C@H](CO)[C@@H](O)[C@H]1O [Compound 4d] | + | − | − | ++ |  | > 50000 | > 50000 | > 50000 | 30600 | 8310 | > 50000 |  |  |  |  | 
N#Cc1cn([C@@H]2S[C@H](CO)[C@@H](O)[C@H]2O)c2ncnc(N)c12 [Compound 5, 4-amino-7-((2R,3R,4S,5R)-3,4-dihydroxy-5-(hydroxymethyl)tetrahydrothiophen-2-yl)-7H-pyrrolo[2,3-d]pyrimidine-5-carbonitrile] | ++ | +++ | ++ | ++ | 2180 |  |  |  |  |  |  | 2580 | 1220 | 1590 | 2240 | 1790
NC(=O)c1cn([C@@H]2S[C@H](CO)[C@@H](O)[C@H]2O)c2ncnc(N)c12 [Compound 6, 4-amino-7-((2R,3R,4S,5R)-3,4-dihydroxy-5-(hydroxymethyl)tetrahydrothiophen-2-yl)-7H-pyrrolo[2,3-d]pyrimidine-5-carboxamide] | ++ | +++ | ++ | + | 1800 |  |  |  |  |  |  | 1990 | 1130 | 1350 | 2100 | 1660

The next lines start with the values.

CSNK1D inhibitory activity (CSNK1D) | DYRK1A inhibitory activity (DYRK1A) | DYRK1B inhibitory activity (DYRK1B) | NTRK1 inhibitory activity (NTRK1) | IC50 ([1]; 72 h) [nM] | IC50 (A549 (lung cancer cells)) [nM] | IC50 [2] [nM] | IC50 [3] [nM] | IC50 [4] [nM] | IC50 [5] [nM] | IC50 [1] [nM] | IC50 (A549 (lung cancer cells); Homo sapiens, 72 h) [nM] | IC50 ([2]; Homo sapiens, SNU-638, 72 h) [nM] | IC50 ([3]; Homo sapiens, HCT-116, 72 h) [nM] | IC50 ([4]; Homo sapiens, 72 h) [nM] | IC50 ([5]; Homo sapiens, SK-HEP1, 72 h) [nM] | SMILES
++ | +++ | +++ | +++ |  | 6050 | 3540 | 2210 | 8240 | 1070 | > 50000 |  |  |  |  |  | Nc1ncnc2c1c(-c1ccco1)cn2[C@@H]1S[C@H](COC(=O)c2ccccc2)[C@@H](O)[C@H]1O [Compound 7a]
++ | ++ | ++ | +++ |  | 3190 | 1310 | 2860 | 2130 | 570 | 2050 |  |  |  |  |  | C#Cc1cn([C@@H]2S[C@H](COC(=O)c3ccccc3)[C@@H](O)[C@H]2O)c2ncnc(N)c12 [Compound 7b]
++ | ++ | ++ | ++ |  | 270 | 130 | 230 | 290 | 180 | 230 |  |  |  |  |  | C#Cc1cn([C@@H]2S[C@H](COC(=O)c3ccc(Cl)cc3)[C@@H](O)[C@H]2O)c2ncnc(N)c12 [Compound 7c]
++ | ++ | ++ | ++ |  | 350 | 190 | 300 | 360 | 250 | 330 |  |  |  |  |  | C#Cc1cn([C@@H]2S[C@H](COC(=O)c3ccc(OC)cc3)[C@@H](O)[C@H]2O)c2ncnc(N)c12 [Compound 7d]
 |  |  |  | 13200 |  |  |  |  |  |  | 11700 | 9700 | 9720 | 11200 | 10200 | C#Cc1cn([C@@H]2S[C@H](CN3CCOCC3)[C@@H](O)[C@H]2O)c2ncnc(N)c12 [Compound 12a, (2R,3R,4S,5R)-2-(4-amino-5-ethynyl-7H-pyrrolo[2,3-d]pyrimidin-7-yl)-5-(morpholinomethyl)tetrahydrothiophene-3,4-diol]
+++ | +++ | +++ | +++ |  |  |  |  |  |  |  | 250 | 620 | 730 | 500 | 310 | C#Cc1cn([C@@H]2SC(=C)[C@@H](O)[C@H]2O)c2ncnc(N)c12 [Compound 12b, (2R,3R,4S)-2-(4-amino-5-ethynyl-7H-pyrrolo[2,3-d]pyrimidin-7-yl)-5-methylenetetrahydrothiophene-3,4-diol]
